Test results published in the NIST ThermoML archive (doi:10.1016/j.jct.2015.07.005).
Values joined by “and” are separate entries in the source; they are usually repeats but may differ in a detail not shown here. Equal values may be shown once.

Conditions: Gas, Frequency=0.005 MHz, Spherical cavity resonance method

F/C=C/C(F)(F)F [trans-1,3,3,3-tetrafluoropropene]
Conditions	speed of sound
379.99 K, 452.13 kPa	166.16 m/s
379.99 K, 784.29 kPa	161.02 m/s
379.99 K, 784.34 kPa	161.02 m/s
379.99 K, 1195.5 kPa	154.18 m/s
379.99 K, 1195.6 kPa	154.18 m/s
379.99 K, 2008.2 kPa	138.61 m/s
380 K, 98.61 kPa	171.32 m/s
380 K, 98.63 kPa	171.32 m/s
380 K, 297.93 kPa	168.44 m/s
380 K, 452.13 kPa	166.16 m/s
380 K, 784.28 kPa	161.02 m/s
380 K, 1195.5 kPa	154.18 m/s
380 K, 1608.3 kPa	146.68 m/s
380 K, 2008.2 kPa	138.61 m/s
380 K, 2215.6 kPa	134.03 m/s
380 K, 2215.7 kPa	134.03 m/s
380 K, 2385.9 kPa	130 m/s
380 K, 2386 kPa	130 m/s
380 K, 2606.5 kPa	124.35 m/s
380 K, 2606.6 kPa	124.35 m/s
380.01 K, 2606.6 kPa	124.35 m/s
380.01 K, 2822.2 kPa	118.21 m/s
380.01 K, 2822.3 kPa	118.22 m/s
380.02 K, 2822.3 kPa	118.22 m/s
401.99 K, 98.41 kPa	176.35 m/s
401.99 K, 98.44 kPa	176.35 m/s
401.99 K, 98.45 kPa	176.35 m/s
401.99 K, 98.46 kPa	176.35 m/s
402 K, 98.39 kPa	176.35 m/s
402 K, 98.4 kPa	176.35 m/s
402 K, 98.42 kPa	176.35 m/s
402 K, 98.43 kPa	176.35 m/s
402 K, 98.44 kPa	176.35 m/s
402 K, 98.45 kPa	176.35 m/s
402 K, 98.46 kPa	176.35 m/s
402 K, 299.24 kPa	173.94 m/s
402 K, 299.25 kPa	173.94 m/s
402 K, 299.26 kPa	173.94 m/s
402 K, 503.14 kPa	171.43 m/s
402 K, 504.13 kPa	171.42 m/s
402 K, 504.78 kPa	171.41 m/s
402 K, 504.99 kPa	171.4 m/s
402 K, 505.27 kPa	171.4 m/s
402 K, 505.76 kPa	171.4 m/s
402 K, 505.81 kPa	171.4 m/s
402 K, 505.96 kPa	171.4 m/s
402 K, 506.02 kPa	171.4 m/s
402.01 K, 502.88 kPa	171.44 m/s
402.01 K, 503 kPa	171.43 m/s
402.01 K, 505.02 kPa	171.41 m/s
402.01 K, 793.53 kPa	167.78 m/s
402.01 K, 793.54 kPa	167.77 m/s and 167.77 m/s
402.01 K, 1189.8 kPa	162.56 m/s and 162.56 m/s
402.01 K, 1595.9 kPa	156.94 m/s
402.01 K, 1596 kPa	156.94 m/s
402.02 K, 1595.8 kPa	156.94 m/s and 156.94 m/s
402.02 K, 1595.9 kPa	156.94 m/s
402.02 K, 1596 kPa	156.94 m/s
402.02 K, 1596.1 kPa	156.94 m/s
402.02 K, 1596.2 kPa	156.94 m/s
402.02 K, 1596.3 kPa	156.94 m/s
402.02 K, 1996.4 kPa	151.09 m/s
402.03 K, 1996.4 kPa	151.09 m/s and 151.09 m/s
402.03 K, 2385.1 kPa	145.09 m/s
402.03 K, 2385.2 kPa	145.1 m/s and 145.1 m/s
402.04 K, 2832 kPa	137.75 m/s and 137.75 m/s
402.04 K, 2832.1 kPa	137.75 m/s and 137.75 m/s
419.97 K, 100.24 kPa	180.17 m/s
419.97 K, 100.26 kPa	180.17 m/s
419.97 K, 100.28 kPa	180.17 m/s
419.97 K, 298.93 kPa	178.09 m/s
419.98 K, 100.2 kPa	180.17 m/s
419.98 K, 100.21 kPa	180.17 m/s
419.98 K, 100.22 kPa	180.17 m/s
419.98 K, 100.23 kPa	180.17 m/s
419.98 K, 100.24 kPa	180.17 m/s
419.98 K, 100.25 kPa	180.17 m/s
419.98 K, 100.27 kPa	180.17 m/s
419.98 K, 100.28 kPa	180.17 m/s
419.98 K, 298.92 kPa	178.09 m/s
419.98 K, 298.93 kPa	178.09 m/s
419.98 K, 476.26 kPa	176.21 m/s
